Experimental data: patent US11021518B2, “Theta defensin analogs” (The University of Southern California, priority 2019, dated 2021)
Bridge positions count the residues as written; N and C are the ends. Peptide text beside a SMILES is read from it.

Assays:
[1] = system: carbapenem resistant strain of Klebsiella pneumoniae (KPC+-Kp BAA-1705 (ATCC)); assay: murine carbapenem resistant Klebsiella pneumoniae sepsis model, survival; format: in vivo, BALB/c mice; settings: for Kp sepsis % survival at 5 mg/kg: BALB/c mice, i.p. infection, peptide 5 mg/kg i.p. 1 hour post infection; for survival (FIG. 3 left panel): 5 mg/kg i.p. 1 hour post infection, sham controls 25% survival; for survival (FIG. 3 right panel): 0.5 mg/kg i.p. 1 hour post infection; for therapeutic effect on survival (FIG. 4): 1 hour post infection
Description: BALB/c mice were infected interperitoneally with 3-5×10^8 CFU of a carbapenem resistant strain of Klebsiella pneumoniae (KPC+-Kp BAA-1705 (ATCC)) and treated with peptide one hour post infection. […] P-values were determined by Fisher's exact test. The therapeutic peptides were provided intraperitoneally 1 hour after induction of sepsis.
BALB/c mice were infected i.p. with KPC+-Kp BAA-1705 (ATCC) and treated with a single dose of MTD12813, at the levels indicated, 1 hour post infection. The significance (P-values determined by Fisher's exact test) of the therapeutic effect for each dose is shown. […] It should be appreciated that 0.5 mg/kg is the lowest dose tested, and that Inventors believe that MTD12813 is effective at still lower doses, for example down to 0.25 mg/kg, […], or 10 μg/kg.

TNF-α (TNF) release = assay: suppression of TNF-α (TNF) release; format: cell-based
TACE = TACE (Homo sapiens, UniProt P78536); assay: inhibition of TACE; format: biochemical
Sequence of TACE (P78536 215-824): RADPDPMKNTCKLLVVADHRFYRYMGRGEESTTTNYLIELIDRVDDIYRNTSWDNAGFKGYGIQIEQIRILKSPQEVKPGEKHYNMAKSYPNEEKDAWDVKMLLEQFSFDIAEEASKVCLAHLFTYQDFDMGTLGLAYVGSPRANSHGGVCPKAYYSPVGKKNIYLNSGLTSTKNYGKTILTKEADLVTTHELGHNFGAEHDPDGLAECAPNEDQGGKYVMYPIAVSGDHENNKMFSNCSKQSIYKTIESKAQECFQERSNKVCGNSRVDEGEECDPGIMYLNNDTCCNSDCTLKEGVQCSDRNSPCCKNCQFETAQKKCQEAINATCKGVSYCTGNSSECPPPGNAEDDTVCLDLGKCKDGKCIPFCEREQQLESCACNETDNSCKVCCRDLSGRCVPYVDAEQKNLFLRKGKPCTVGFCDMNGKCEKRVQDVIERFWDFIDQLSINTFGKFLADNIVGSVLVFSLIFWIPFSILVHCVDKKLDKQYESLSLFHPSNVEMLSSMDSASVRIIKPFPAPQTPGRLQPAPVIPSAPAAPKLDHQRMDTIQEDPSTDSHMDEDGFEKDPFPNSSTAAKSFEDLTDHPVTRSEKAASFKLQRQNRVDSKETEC

Compound: CC[C@H](C)[C@@H]1NC(=O)[C@@H]2CSSC[C@H](NC(=O)[C@H]([C@@H](C)CC)NC(=O)[C@@H]3CSSC[C@H](NC1=O)C(=O)N[C@@H](CCCNC(=N)N)C(=O)N[C@@H](CCCNC(=N)N)C(=O)NCC(=O)N[C@@H](C(C)C)C(=O)N3)C(=O)N[C@@H](CCCNC(=N)N)C(=O)N[C@@H](CCCNC(=N)N)C(=O)NCC(=O)N[C@@H](C(C)C)C(=O)N2 [MTD1281] (cyclo(CICRRGVCICRRGV); disulfide 1-10, 3-8)
- Kp sepsis % survival at 5 mg/kg [1]: 40%
- TNF % suppression at 5 mg/kg (TNF-α (TNF) release): 83.0%
- IC50 (TACE): 347 nM

Compound: CC(C)[C@@H]1NC(=O)CNC(=O)[C@H](CCCNC(=N)N)NC(=O)[C@H](CCCNC(=N)N)NC(=O)[C@@H]2CSSC[C@H](NC1=O)C(=O)N[C@@H](C)C(=O)N[C@H]1CSSC[C@H](NC(=O)[C@H](Cc3ccccc3)NC(=O)[C@H](CCCNC(=N)N)NC(=O)[C@H](CCCNC(=N)N)NC(=O)[C@H](CCCNC(=N)N)NC1=O)C(=O)N[C@@H](C)C(=O)N2 [MTD1289] (cyclo(ACRRGVCACRRRFC); disulfide 2-7, 9-14)
- IC50 (TACE): 1670 nM

Compound: RTD-1: naturally occurring rhesus monkey θ-defensin, cyclic octadecapeptide with 3 disulfide bonds (cyclo(GFCRCLCRRGVCRCICTR); disulfide (positions not given here); not fully specified (bridges); also: three disulfide bonds, pairing not given here; listed as Macaca mulatta) [reference compound]
- survival (FIG. 3 left panel) [1]: 70%

Compound: CC[C@H](C)[C@@H]1NC(=O)[C@@H]2CSSC[C@H](NC(=O)[C@H](CC(C)C)NC(=O)[C@@H]3CSSC[C@H](NC1=O)C(=O)N[C@@H](CCCNC(=N)N)C(=O)N[C@@H](CCCNC(=N)N)C(=O)N[C@@H](CCCNC(=N)N)C(=O)N[C@@H](Cc1ccccc1)C(=O)N3)C(=O)N[C@@H](CCCNC(=N)N)C(=O)N[C@@H](CCCNC(=N)N)C(=O)NCC(=O)N[C@@H](C)C(=O)N2 [MTD1286] (cyclo(ACICRRRFCLCRRG); disulfide 2-11, 4-9)
- IC50 (TACE): 305 nM

Compound: CC[C@H](C)[C@@H]1NC(=O)[C@@H]2CSSC[C@H](NC(=O)[C@H](CO)NC(=O)[C@@H]3CSSC[C@H](NC1=O)C(=O)N[C@@H](CCCNC(=N)N)C(=O)N[C@@H](CCCNC(=N)N)C(=O)NCC(=O)N[C@@H](C(C)C)C(=O)N3)C(=O)N[C@@H](CCCNC(=N)N)C(=O)N[C@@H](CCCNC(=N)N)C(=O)N[C@@H](CCCNC(=N)N)C(=O)N[C@@H](Cc1ccccc1)C(=O)N2 [MTD12811] (cyclo(CICRRGVCSCRRRF); disulfide 1-10, 3-8)
- Kp sepsis % survival at 5 mg/kg [1]: 30%
- TNF % suppression at 5 mg/kg (TNF-α (TNF) release): 37.5%
- IC50 (TACE): 1890 nM

Compound: CC(C)C[C@@H]1NC(=O)[C@@H]2CSSC[C@H](NC(=O)[C@H](CC(C)C)NC(=O)[C@@H]3CSSC[C@H](NC1=O)C(=O)N[C@@H](CCCNC(=N)N)C(=O)N[C@@H](CCCNC(=N)N)C(=O)NCC(=O)N[C@@H](C(C)C)C(=O)N3)C(=O)N[C@@H](CCCNC(=N)N)C(=O)N[C@@H](CCCNC(=N)N)C(=O)NCC(=O)N[C@@H](C(C)C)C(=O)N2 [MTD1284] (cyclo(CLCRRGVCLCRRGV); disulfide 1-10, 3-8)
- Kp sepsis % survival at 5 mg/kg [1]: 53.3%
- TNF % suppression at 5 mg/kg (TNF-α (TNF) release): 78.8%
- IC50 (TACE): 732 nM

Compound: CC[C@H](C)[C@@H]1NC(=O)[C@@H]2CSSC[C@H](NC(=O)[C@H]([C@@H](C)CC)NC(=O)[C@@H]3CSSC[C@H](NC1=O)C(=O)NCC(=O)N[C@@H](CCCNC(=N)N)C(=O)NCC(=O)N[C@@H](C(C)C)C(=O)N3)C(=O)N[C@@H](CCCNC(=N)N)C(=O)N[C@@H](CCCNC(=N)N)C(=O)N[C@@H](CCCNC(=N)N)C(=O)N[C@@H](C(C)C)C(=O)N2 [MTD12813] (cyclo(CGRGVCICRRRVCI); disulfide 1-6, 8-13)
- survival (FIG. 3 right panel) [1]: ~90%
- survival (FIG. 3 left panel) [1]: complete protection
- Kp sepsis % survival at 5 mg/kg [1]: 100%
- therapeutic effect on survival (FIG. 4) ([1]; single dose 0.5 mg/kg, lowest dose tested): highly effective
- therapeutic effect on survival (FIG. 4) ([1]; single dose 1.25 mg/kg): as effective as 5 mg/kg
- TNF % suppression at 5 mg/kg (TNF-α (TNF) release): 95.6%
- IC50 (TACE): 546 nM

Compound: CC(C)C[C@@H]1NC(=O)[C@@H]2CSSC[C@H](NC(=O)[C@H](CO)NC(=O)[C@@H]3CSSC[C@H](NC1=O)C(=O)N[C@@H](CCCNC(=N)N)C(=O)N[C@@H](CCCNC(=N)N)C(=O)NCC(=O)N[C@@H](C(C)C)C(=O)N3)C(=O)N[C@@H](CCCNC(=N)N)C(=O)N[C@@H](CCCNC(=N)N)C(=O)N[C@@H](CCCNC(=N)N)C(=O)N[C@@H](Cc1ccccc1)C(=O)N2 [MTD12810] (cyclo(CLCRRGVCSCRRRF); disulfide 1-10, 3-8)
- Kp sepsis % survival at 5 mg/kg [1]: 0%
- TNF % suppression at 5 mg/kg (TNF-α (TNF) release): 2.0%
- IC50 (TACE): 1540 nM

Compound: CC[C@H](C)[C@@H]1NC(=O)[C@@H]2CSSC[C@H](NC(=O)[C@H](CO)NC(=O)[C@@H]3CSSC[C@H](NC1=O)C(=O)N[C@@H](CCCNC(=N)N)C(=O)N[C@@H](CCCNC(=N)N)C(=O)N[C@@H](CCCNC(=N)N)C(=O)N[C@@H](Cc1ccccc1)C(=O)N3)C(=O)N[C@@H](CCCNC(=N)N)C(=O)N[C@@H](CCCNC(=N)N)C(=O)NCC(=O)N[C@@H](C(C)C)C(=O)N2 [MTD12812] (cyclo(CICRRRFCSCRRGV); disulfide 1-10, 3-8)
- Kp sepsis % survival at 5 mg/kg [1]: 20%
- TNF % suppression at 5 mg/kg (TNF-α (TNF) release): 14.9%
- IC50 (TACE): 1100 nM

Compound: CC[C@H](C)[C@@H]1NC(=O)[C@@H]2CSSC[C@H](NC(=O)[C@H](CC(C)C)NC(=O)[C@@H]3CSSC[C@H](NC1=O)C(=O)N[C@@H](CCCNC(=N)N)C(=O)N[C@@H](CCCNC(=N)N)C(=O)N[C@@H](CCCNC(=N)N)C(=O)N[C@@H](Cc1ccccc1)C(=O)N3)C(=O)N[C@@H](CCCNC(=N)N)C(=O)N[C@@H](CCCNC(=N)N)C(=O)NCC(=O)N[C@@H](C(C)C)C(=O)N2 [MTD1280] (cyclo(CICRRRFCLCRRGV); disulfide 1-10, 3-8)
- survival (FIG. 3 right panel) [1]: essentially identical to that of the sham control
- Kp sepsis % survival at 5 mg/kg [1]: 80-100%
- TNF % suppression at 5 mg/kg (TNF-α (TNF) release): 98.7%
- IC50 (TACE): 1280 nM

Compound: CC(C)[C@@H]1NC(=O)CNC(=O)[C@H](CCCNC(=N)N)NC(=O)[C@H](CCCNC(=N)N)NC(=O)[C@@H]2CSSC[C@H](NC1=O)C(=O)N[C@@H](C)C(=O)N[C@H]1CSSC[C@H](NC(=O)[C@H](Cc3ccccc3)NC(=O)[C@H](CCCNC(=N)N)NC(=O)[C@H](CCCNC(=N)N)NC(=O)[C@H](C)NC1=O)C(=O)N[C@@H](C)C(=O)N2 [MTD12815] (cyclo(ACARRFCACRRGVC); disulfide 2-7, 9-14)
- IC50 (TACE): 1180 nM
